From paper PMC9904277, “Rational design of Harakiri (HRK)-derived constrained peptides as BCL-xL inhibitors” (Chemical Communications (Cambridge, England), 2023)
*1 amine or outer side, *2 acyl side, *3 side chain or, on linkers, in order; H or OH if unused. Where a SMILES comes first, the peptide text is derived from it. Bridges are numbered along the chain shown (N, C = ends). [ ]: non-standard residue; d: D form. The star is where a group is joined. 5FAM = O=C1OC2(c3ccc(O)cc3Oc3cc(O)ccc32)c2ccc(C(=O)*)cc21; Maleimide(3,4-diyl) = O=C1NC(=O)C([*:2])=C1[*:1]; Nle = CCCC[C@H](N)C(=O)O; Ahx = NCCCCCC(=O)O

Columns and labels:
MCL-1 [1] = molecular target: T1, MCL-1 (Homo sapiens, UniProt Q07820); experiment: biochemical
T1 sequence (Q07820 172-327): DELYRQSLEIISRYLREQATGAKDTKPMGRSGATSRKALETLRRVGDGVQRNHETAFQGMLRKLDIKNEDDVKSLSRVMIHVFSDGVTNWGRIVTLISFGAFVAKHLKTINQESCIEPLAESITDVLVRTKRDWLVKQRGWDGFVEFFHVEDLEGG

MCL-1 [2] = molecular target: T1, MCL-1; conditions: IC50 HRK/MCL-1 divided by IC50 HRK/BCL-xL
BCL-xL = molecular target: T2, BCL-xL (Homo sapiens, UniProt Q07817, DEL27-82); experiment: Direct FA titration of FAM-labelled tracer with BCL-xL; assay type: binding; conditions: FAM-Ahx-Beclin-1 150 nM, BCL-xL 6 nM-125 μM, 25 mM Tris, 150 mM NaCl, pH 7.4, 20 °C
T2 construct: BCL-2, 1-209; His-SUMO (N, cleaved yes); made in house; host or cells: E. coli BL21
T2 sequence (Q07817 with tags, fused parts or gaps DEL27-82): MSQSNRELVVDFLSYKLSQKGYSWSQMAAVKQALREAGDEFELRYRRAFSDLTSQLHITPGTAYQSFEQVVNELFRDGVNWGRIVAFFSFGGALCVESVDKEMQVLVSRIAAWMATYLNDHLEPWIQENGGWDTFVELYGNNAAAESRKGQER

Kd (BCL-xL) [µM]	Compound	IC50 (MCL-1 [1]) [µM]	IC50 ratio MCL-1 : BCL-xL (selectivity index) (MCL-1 [2])
–	CSCC[C@H](NC(=O)[C@H](CCCNC(=N)N)NC(=O)[C@H](CCCNC(=N)N)NC(=O)[C@H](CC(C)C)NC(=O)[C@H](CCC(=O)O)NC(=O)[C@H](CCCNC(=N)N)NC(=O)CNC(=O)[C@H](Cc1ccc(O)cc1)NC(=O)[C@H](CCCNC(=N)N)NC(=O)[C@H](CCC(N)=O)NC(=O)[C@H](C)NC(=O)[C@H](C)NC(=O)[C@H](Cc1c[nH]c2ccccc12)NC(=O)[C@H](CC(C)C)NC(=O)[C@H](CC(N)=O)NC(C)=O)C(=O)N[C@@H](CO)C(=O)N[C@@H](CC(=O)O)C(=O)N[C@@H](CCC(=O)O)C(=O)N[C@@H](Cc1ccccc1)C(=O)N[C@H](C(=O)N[C@@H](CC(=O)O)C(=O)N[C@@H](CO)C(=O)N[C@@H](Cc1ccccc1)C(=O)N[C@@H](CCCCN)C(=O)N[C@@H](CCCCN)C(N)=O)C(C)C [BAD-wt, reference compound]	> 50	–
–	CC(=O)N[C@@H](CO)C(=O)N[C@@H](C)C(=O)N[C@@H](C)C(=O)N[C@@H](CCC(N)=O)C(=O)N[C@@H](CC(C)C)C(=O)N[C@@H](Cc1ccc(O)cc1)C(=O)N[C@@H](C)C(=O)N[C@H]1CSC2=C(SC[C@@H](C(=O)N[C@@H](Cc3ccccc3)C(=O)NCC(=O)N[C@@H](CC(=O)O)C(=O)N[C@@H](CCC(=O)O)C(=O)N[C@@H](Cc3ccccc3)C(=O)N[C@@H](Cc3c[nH]cn3)C(=O)N[C@@H](CCC(N)=O)C(N)=O)NC(=O)[C@H](CCCCN)NC(=O)[C@H](CC(C)C)NC(=O)[C@H](CCCNC(=N)N)NC1=O)C(=O)NC2=O [HRKS4H] (Ac-SAAQLYACRLKCFGDEFHQ-NH2; linker 8-12 via Maleimide(3,4-diyl))	> 50	>5.9
–	Ac-RYGRELRRMSDEFVDSFKK-NH2 [BAD-s, reference compound]	> 50	–
–	Ac-SAAQLYAARLKALGDEFHQ-NH2 [HRK-2]	> 50	> 45.4
–	Ac-SAAQLYAARLKAFGDEFHQ-NH2 [HRK-hybrid]	> 50	>55.5
–	CCCC[C@H](NC(=O)[C@H](C)NC(=O)[C@H](CCCCN)NC(=O)[C@H](CC(C)C)NC(=O)[C@H](CCCNC(=N)N)NC(=O)[C@H](C)NC(=O)[C@H](C)NC(=O)[C@H](Cc1ccc(O)cc1)NC(=O)[C@H](CC(C)C)NC(=O)[C@H](CCC(N)=O)NC(=O)[C@H](C)NC(=O)[C@H](C)NC(=O)[C@H](CO)NC(C)=O)C(=O)NCC(=O)N[C@@H](CC(=O)O)C(=O)N[C@@H](CCC(=O)O)C(=O)N[C@@H](Cc1ccccc1)C(=O)N[C@@H](Cc1c[nH]cn1)C(=O)N[C@@H](CCC(N)=O)C(N)=O [HRK-3] (Ac-SAAQLYAARLKA[Nle]GDEFHQ-NH2)	> 50	–
–	Ac-SAAQLYAARLKALGDELHQ-NH2 [HRK-1]	> 50	> 5.8
–	Ac-SAAQLTAARLKALGDELHQ-NH2 [HRK-s]	> 50	> 2.3
9.7 ± 2.3	CC[C@H](C)[C@H](NC(=O)[C@H](CC(=O)O)NC(=O)[C@H](Cc1ccccc1)NC(=O)[C@H](CC(C)C)NC(=O)[C@H](CC(=O)O)NC(=O)CNC(=O)[C@@H](NC(=O)[C@@H](NC(=O)[C@H](CCCCN)NC(=O)[C@H](CC(C)C)NC(=O)[C@H](CCCNC(=N)N)NC(=O)[C@H](CCCNC(=N)N)NC(=O)[C@H](CO)NC(=O)[C@H](CC(C)C)NC(=O)[C@H](CC(N)=O)NC(=O)[C@H](CCC(=O)O)NC(=O)[C@H](CCSC)NC(=O)[C@@H](NC(=O)CCCCCNC(=O)c1ccc2c(c1)C(=O)OC21c2ccc(O)cc2Oc2cc(O)ccc21)[C@@H](C)O)C(C)C)[C@@H](C)O)C(=O)N[C@@H](CCSC)C(=O)N[C@@H](CO)C(N)=O [FAM-Ahx-Beclin-1] ({5FAM-Ahx}-TMENLSRRLKVTGDLFDIMS-NH2)	–	–
–	CC(=O)N[C@@H](CO)C(=O)N[C@@H](C)C(=O)N[C@@H](C)C(=O)N[C@@H](CCC(N)=O)C(=O)N[C@@H](CC(C)C)C(=O)N[C@@H](Cc1ccc(O)cc1)C(=O)N[C@@H](C)C(=O)N[C@@H](CS)C(=O)N[C@@H](CCCNC(=N)N)C(=O)N[C@@H](CC(C)C)C(=O)N[C@@H](CCCCN)C(=O)N[C@@H](CS)C(=O)N[C@@H](Cc1ccccc1)C(=O)NCC(=O)N[C@@H](CC(=O)O)C(=O)N[C@@H](CCC(=O)O)C(=O)N[C@@H](Cc1ccccc1)C(=O)N[C@@H](Cc1c[nH]cn1)C(=O)N[C@@H](CCC(N)=O)C(N)=O [HRKC4H] (Ac-SAAQLYACRLKCFGDEFHQ-NH2)	> 50	>2.5
–	Ac-SAAQLLAARLKAFGDEFHQ-NH2 [HRK-5]	16 ± 4.4	16.0
–	CSCC[C@H](NC(=O)[C@@H](NC(=O)[C@H](CCCNC(=N)N)NC(=O)[C@H](CCC(N)=O)NC(=O)[C@H](Cc1c[nH]cn1)NC(=O)[C@H](CC(C)C)NC(=O)[C@H](CCC(=O)O)NC(=O)[C@H](CC(=O)O)NC(=O)CNC(=O)[C@H](CC(C)C)NC(=O)[C@H](CS)NC(=O)[C@H](CCCCN)NC(=O)[C@H](CC(C)C)NC(=O)[C@H](CCCNC(=N)N)NC(=O)[C@H](CS)NC(=O)[C@H](C)NC(=O)[C@@H](NC(=O)[C@H](CC(C)C)NC(=O)[C@H](CCC(N)=O)NC(=O)[C@H](C)NC(=O)[C@H](C)NC(=O)[C@H](CO)NC(C)=O)[C@@H](C)O)[C@@H](C)O)C(=O)N[C@@H](Cc1c[nH]c2ccccc12)C(N)=O [HRKC4] (Ac-SAAQLTACRLKCLGDELHQRTMW-NH2)	3.9 ± 0.2	–
–	Ac-SAAQLLAARLKALGDELHQ-NH2 [HRK-4]	3.5 ± 1.2	2.5
